≈ marks a conversion by molar mass, not a printed value.
What was measured:
Clostridioides difficile = assay: Antimicrobial activity against Clostridium difficile by broth microdilution method; format: functional
Staphylococcus aureus [1] = assay: Antimicrobial activity against methicillin-susceptible Staphylococcus aureus by broth microdilution method; format: functional
Staphylococcus aureus [2] = assay: Antimicrobial activity against methicillin-resistant Staphylococcus aureus by broth microdilution method; format: functional
[3] = system: Staphylococcus epidermidis; assay: Antimicrobial activity against methicillin-susceptible Staphylococcus epidermidis by broth microdilution method; format: functional
[4] = system: Staphylococcus epidermidis; assay: Antimicrobial activity against methicillin-resistant Staphylococcus epidermidis by broth microdilution method; format: functional
Enterococcus faecalis [5] = assay: Antimicrobial activity against vancomycin-susceptible Enterococcus faecalis by broth microdilution method; format: functional
Enterococcus faecalis [6] = assay: Antimicrobial activity against vancomycin-resistant Enterococcus faecalis by broth microdilution method; format: functional
Enterococcus faecium [7] = assay: Antimicrobial activity against vancomycin-susceptible Enterococcus faecium by broth microdilution method; format: functional
Enterococcus faecium [8] = assay: Antimicrobial activity against vancomycin-resistant Enterococcus faecium by broth microdilution method; format: functional
Streptococcus pneumoniae [9] = assay: Antimicrobial activity against penicillin-susceptible Streptococcus pneumoniae by broth microdilution method; format: functional
Streptococcus pneumoniae [10] = assay: Antimicrobial activity against penicillin-intermediate Streptococcus pneumoniae by broth microdilution method; format: functional
Streptococcus pneumoniae [11] = assay: Antimicrobial activity against penicillin-resistant Streptococcus pneumoniae by broth microdilution method; format: functional
Streptococcus agalactiae = assay: Antimicrobial activity against Streptococcus agalactiae by broth microdilution method; format: functional
Escherichia coli = assay: Antimicrobial activity against Escherichia coli by broth microdilution method; format: functional
Klebsiella pneumoniae [12] = assay: Antimicrobial activity against Klebsiella pneumoniae by broth microdilution method; format: functional
Klebsiella pneumoniae [13] = assay: Antimicrobial activity against ESBL-production Klebsiella pneumoniae by broth microdilution method; format: functional
Serratia marcescens = assay: Antimicrobial activity against Serratia marcescens by broth microdilution method; format: functional
Proteus mirabilis = assay: Antimicrobial activity against Proteus mirabilis by broth microdilution method; format: functional
Acinetobacter baumannii [14] = assay: Antimicrobial activity against Acinetobacter baumannii by broth microdilution method; format: functional
Acinetobacter baumannii [15] = assay: Antimicrobial activity against multiple dug-resistant Acinetobacter baumannii by broth microdilution method; format: functional
Pseudomonas aeruginosa = assay: Antimicrobial activity against Pseudomonas aeruginosa by broth microdilution method; format: functional
Burkholderia cepacia = assay: Antimicrobial activity against Burkholderia cepacia by broth microdilution method; format: functional
Haemophilus influenzae = assay: Antimicrobial activity against Haemophilus influenzae by broth microdilution method; format: functional
[16] = Cytotoxicity against HeLa cells after 3 days by MTS assay; format: cell-based; settings: human

## Cc1ncc([N+](=O)[O-])n1CCO [METRONIDAZOLE]
Clostridioides difficile
  MIC50: 0.12 µg/mL (≈ 0.701 µM)
  MIC90: 0.5 µg/mL (≈ 2.92 µM)

## c1cc2cc(-c3ccc(-c4cc5ccc(C6=NCCCN6)cc5[nH]4)cc3)[nH]c2cc1C1=NCCCN1
Staphylococcus aureus [1]
  MIC50: 0.12 µg/mL (≈ 0.254 µM)
  MIC90: 0.5 µg/mL (≈ 1.06 µM)
Staphylococcus aureus [2]
  MIC50: 0.06 µg/mL (≈ 0.127 µM)
  MIC90: 0.12 µg/mL (≈ 0.254 µM)
[3]
  MIC50: 0.03 µg/mL (≈ 0.0635 µM)
  MIC90: 0.06 µg/mL (≈ 0.127 µM)
[4]
  MIC50: 0.015 µg/mL (≈ 0.0317 µM)
  MIC90: 0.06 µg/mL (≈ 0.127 µM)
Enterococcus faecalis [5]
  MIC50: 0.06 µg/mL (≈ 0.127 µM)
  MIC90: 0.06 µg/mL (≈ 0.127 µM)
Enterococcus faecalis [6]
  MIC50: 0.015 µg/mL (≈ 0.0317 µM)
  MIC90: 0.03 µg/mL (≈ 0.0635 µM)
Enterococcus faecium [7]
  MIC50: 0.004 µg/mL (≈ 0.00846 µM)
  MIC90: 0.015 µg/mL (≈ 0.0317 µM)
Enterococcus faecium [8]
  MIC: 0.004 µg/mL (≈ 0.00846 µM)
  MIC50: 0.004 µg/mL (≈ 0.00846 µM)
  MIC90: 0.004 µg/mL (≈ 0.00846 µM)
Streptococcus pneumoniae [9]
  MIC50: 0.03 µg/mL (≈ 0.0635 µM)
  MIC90: 0.03 µg/mL (≈ 0.0635 µM)
Streptococcus pneumoniae [10]
  MIC50: 0.03 µg/mL (≈ 0.0635 µM)
  MIC90: 0.03 µg/mL (≈ 0.0635 µM)
Streptococcus pneumoniae [11]
  MIC50: 0.03 µg/mL (≈ 0.0635 µM)
  MIC90: 0.06 µg/mL (≈ 0.127 µM)
Streptococcus agalactiae
  MIC: 0.03 µg/mL (≈ 0.0635 µM)
  MIC50: 0.03 µg/mL (≈ 0.0635 µM)
  MIC90: 0.03 µg/mL (≈ 0.0635 µM)
Clostridioides difficile
  MIC50: 0.06 µg/mL (≈ 0.127 µM)
  MIC90: 0.12 µg/mL (≈ 0.254 µM)
Escherichia coli
  MIC50: 0.12 µg/mL (≈ 0.254 µM)
  MIC90: 0.25 µg/mL (≈ 0.529 µM)
Klebsiella pneumoniae [12]
  MIC50: 0.25 µg/mL (≈ 0.529 µM)
  MIC90: 0.5 µg/mL (≈ 1.06 µM)
Klebsiella pneumoniae [13]
  MIC50: 0.12 µg/mL (≈ 0.254 µM)
  MIC90: 0.5 µg/mL (≈ 1.06 µM)
Serratia marcescens
  MIC: 0.12 µg/mL (≈ 0.254 µM)
  MIC50: 0.12 µg/mL (≈ 0.254 µM)
  MIC90: 0.25 µg/mL (≈ 0.529 µM)
Proteus mirabilis
  MIC50: 1 µg/mL (≈ 2.12 µM)
  MIC90: 2 µg/mL (≈ 4.23 µM)
Acinetobacter baumannii [14]
  MIC50: 0.5 µg/mL (≈ 1.06 µM)
  MIC90: 4 µg/mL (≈ 8.46 µM)
Acinetobacter baumannii [15]
  MIC50: 2 µg/mL (≈ 4.23 µM)
  MIC90: 4 µg/mL (≈ 8.46 µM)
Pseudomonas aeruginosa
  MIC50: 0.25 µg/mL (≈ 0.529 µM)
  MIC90: 1 µg/mL (≈ 2.12 µM)
Burkholderia cepacia
  MIC50: 0.06 µg/mL (≈ 0.127 µM)
  MIC90: 0.12 µg/mL (≈ 0.254 µM)
Haemophilus influenzae
  MIC50: 1 µg/mL (≈ 2.12 µM)
  MIC90: 4 µg/mL (≈ 8.46 µM)
[16]
  CC50 at 72 h: 4 µg/mL (≈ 8.46 µM)

## CC(=O)NC[C@H]1CN(c2ccc(N3CCOCC3)c(F)c2)C(=O)O1 [LINEZOLID]
Staphylococcus aureus [1]
  MIC50: 2 µg/mL (≈ 5.93 µM)
  MIC90: 4 µg/mL (≈ 11.9 µM)
Staphylococcus aureus [2]
  MIC50: 2 µg/mL (≈ 5.93 µM)
  MIC90: 4 µg/mL (≈ 11.9 µM)
[3]
  MIC50: 1 µg/mL (≈ 2.96 µM)
  MIC90: 2 µg/mL (≈ 5.93 µM)
[4]
  MIC: 1 µg/mL (≈ 2.96 µM)
  MIC50: 1 µg/mL (≈ 2.96 µM)
  MIC90: 2 µg/mL (≈ 5.93 µM)
Enterococcus faecalis [5]
  MIC50: 2 µg/mL (≈ 5.93 µM)
  MIC90: 2 µg/mL (≈ 5.93 µM)
Enterococcus faecalis [6]
  MIC50: 1 µg/mL (≈ 2.96 µM)
  MIC90: 1 µg/mL (≈ 2.96 µM)
Enterococcus faecium [7]
  MIC: 2 µg/mL (≈ 5.93 µM)
  MIC50: 2 µg/mL (≈ 5.93 µM)
  MIC90: 4 µg/mL (≈ 11.9 µM)
Enterococcus faecium [8]
  MIC50: 2 µg/mL (≈ 5.93 µM)
  MIC90: 2 µg/mL (≈ 5.93 µM)
Streptococcus pneumoniae [9]
  MIC50: 1 µg/mL (≈ 2.96 µM)
  MIC90: 2 µg/mL (≈ 5.93 µM)
Streptococcus pneumoniae [10]
  MIC50: 1 µg/mL (≈ 2.96 µM)
  MIC90: 1 µg/mL (≈ 2.96 µM)
Streptococcus pneumoniae [11]
  MIC50: 1 µg/mL (≈ 2.96 µM)
  MIC90: 1 µg/mL (≈ 2.96 µM)
Streptococcus agalactiae
  MIC: 1 µg/mL (≈ 2.96 µM)
  MIC50: 1 µg/mL (≈ 2.96 µM)
  MIC90: 2 µg/mL (≈ 5.93 µM)

## CCC[C@@H]1C[C@@H](C(=O)N[C@@H]([C@H]2O[C@H](SC)[C@H](O)[C@@H](O)[C@H]2O)[C@H](C)Cl)N(C)C1 [CLINDAMYCIN]
Clostridioides difficile
  MIC50: 4 µg/mL (≈ 9.41 µM)
  MIC90: > 8 µg/mL

## CN(C)c1cc(NC(=O)CNC(C)(C)C)c(O)c2c1C[C@H]1C[C@H]3[C@H](N(C)C)C(O)=C(C(N)=O)C(=O)[C@@]3(O)C(O)=C1C2=O [TIGECYCLINE]
Escherichia coli
  MIC: 0.12 µg/mL (≈ 0.205 µM)
  MIC50: 0.12 µg/mL (≈ 0.205 µM)
  MIC90: 0.25 µg/mL (≈ 0.427 µM)
Klebsiella pneumoniae [12]
  MIC50: 1 µg/mL (≈ 1.71 µM)
  MIC90: > 8 µg/mL
Klebsiella pneumoniae [13]
  MIC50: 0.03 µg/mL (≈ 0.0512 µM)
  MIC90: > 2 µg/mL
Serratia marcescens
  MIC50: 0.5 µg/mL (≈ 0.854 µM)
  MIC90: 2 µg/mL (≈ 3.41 µM)
Proteus mirabilis
  MIC50: 0.5 µg/mL (≈ 0.854 µM)
  MIC90: > 32 µg/mL
Acinetobacter baumannii [14]
  MIC50: 0.25 µg/mL (≈ 0.427 µM)
  MIC90: > 8 µg/mL
Acinetobacter baumannii [15]
  MIC50: 0.5 µg/mL (≈ 0.854 µM)
  MIC90: 2 µg/mL (≈ 3.41 µM)
Pseudomonas aeruginosa
  MIC50: 0.5 µg/mL (≈ 0.854 µM)
  MIC90: > 32 µg/mL
Burkholderia cepacia
  MIC50: > 8 µg/mL
  MIC90: > 8 µg/mL

## CCCCCCCCCC(=O)N[C@@H](Cc1c[nH]c2ccccc12)C(=O)N[C@H](CC(N)=O)C(=O)N[C@@H](CC(=O)O)C(=O)N[C@@H]1C(=O)NCC(=O)N[C@@H](CCCN)C(=O)N[C@@H](CC(=O)O)C(=O)N[C@H](C)C(=O)N[C@@H](CC(=O)O)C(=O)NCC(=O)N[C@H](CO)C(=O)N[C@@H]([C@H](C)CC(=O)O)C(=O)N[C@@H](CC(=O)c2ccccc2N)C(=O)O[C@@H]1C
Staphylococcus aureus [1]
  MIC50: 0.5 µg/mL (≈ 0.309 µM)
  MIC90: 0.5 µg/mL (≈ 0.309 µM)
Staphylococcus aureus [2]
  MIC50: 0.25 µg/mL (≈ 0.154 µM)
  MIC90: 0.25 µg/mL (≈ 0.154 µM)
[3]
  MIC: 0.5 µg/mL (≈ 0.309 µM)
  MIC50: 0.5 µg/mL (≈ 0.309 µM)
  MIC90: 1 µg/mL (≈ 0.617 µM)
[4]
  MIC: 0.5 µg/mL (≈ 0.309 µM)
  MIC50: 0.5 µg/mL (≈ 0.309 µM)
  MIC90: 1 µg/mL (≈ 0.617 µM)
Enterococcus faecalis [5]
  MIC50: 1 µg/mL (≈ 0.617 µM)
  MIC90: 2 µg/mL (≈ 1.23 µM)
Enterococcus faecalis [6]
  MIC50: 0.5 µg/mL (≈ 0.309 µM)
  MIC90: 2 µg/mL (≈ 1.23 µM)
Enterococcus faecium [7]
  MIC50: 4 µg/mL (≈ 2.47 µM)
  MIC90: 4 µg/mL (≈ 2.47 µM)
Enterococcus faecium [8]
  MIC50: 2 µg/mL (≈ 1.23 µM)
  MIC90: 4 µg/mL (≈ 2.47 µM)
Streptococcus pneumoniae [9]
  MIC50: 0.06 µg/mL (≈ 0.037 µM)
  MIC90: 0.25 µg/mL (≈ 0.154 µM)
Streptococcus pneumoniae [10]
  MIC50: 0.06 µg/mL (≈ 0.037 µM)
  MIC90: 0.25 µg/mL (≈ 0.154 µM)
Streptococcus pneumoniae [11]
  MIC50: 0.06 µg/mL (≈ 0.037 µM)
  MIC90: 0.12 µg/mL (≈ 0.074 µM)
Streptococcus agalactiae
  MIC50: 0.5 µg/mL (≈ 0.309 µM)
  MIC90: 2 µg/mL (≈ 1.23 µM)
